Columns and labels:
prolyl endopeptidase = assay: Measurement of anti-prolyl endopeptidase activity; type: biochemical; conditions: substrate Z-glycyl-proline-β-naphthylamide, phosphate buffer pH 7.0, absorbance at 410 nm
Experimental: The method of Yoshimoto and Tsuru (T. Yoshimoto and D. Tsuru, Agr. Biol. Chem. 42, 2417, 1978) was used to measure the anti-prolyl endopeptidase activities of several compounds of the present invention. A mixture of 0.0025M Z-glycyl-proline-β-naphthylamide (0.25 ml), 0.1M phosphate buffer (pH, 7.0; 0.99 ml) and a solution of a particular anti-prolyl endopeptidase compound (0.01 ml) was incubated in a test tube at 37° C. for 3 minutes. Thereafter, 0.1 ml of a solution of prolyl endopeptidase (0.2 U/ml) was added and the mixture was heated at 35° C. for 10 minutes. After the reaction, 2.0 ml of Triton X-100 in 1M acetate buffer (pH, 4.0 ) was added to the reaction mixture until the final concentration of the surfactant was 10%. The mixture was left at room temperature for 15 minutes and the absorance (a) at 410 nm was measured.
A sample for blind test was prepared by using the buffer instead of the anti-prolyl endopeptidase compound and its absorbance (b) was also measured. The percent inhibition of prolyl endopeptidase was calculated by the formula: ((b-a)/b)×100, and the amount of a specific compound to achieve 50% inhibition (IC50) was determined.

[1] = Acute toxicity test in mice; conditions: mouse, in vivo, ip; single i.p. administration in DMSO/physiological saline, five mice per group, observed at 24 and 48 hours; read-out: Average dose (mg/kg) at which the group remained sound and showed no sign of intoxication
Experimental: The compounds of the present invention were checked for their acute toxicity in CDF-1 strain male mice (body weight: 27.2-30.1 g) purchased from Awazu Laboratory Animals Co., Ltd.
Test samples were prepared by dissolving the respective compounds in DMSO, and mixing with an equal amount of physiological saline. A portion (0.1 ml) of the so conditioned test sample was administered intraperitoneally to each of the mice used. Each of the tested groups consisted of five mice. At 24 and 48 hours of the administration, the mice were observed.

[2] = test system: experimental amnesia caused in rats by scopolamine; assay: Preventive effect against experimental amnesia caused in rats by scopolamine (intraperitoneal administration); type: in vivo, Wister male rats; conditions: for No. of amnesic rats/No. of rats tested / Percentage amnesia: scopolamine 3 mg/kg i.p., assessed 24 and 48 hours after scopolamine
Experimental: (§1) Several of the anti-prolyl endopeptidase compounds of the present invention were checked for their ability to prevent the inhibition of long-term memory fixation by scopolamine. Solutions of physiological saline that contained selected compounds of the present inventions in varying amounts (20 mg, 2 mg, 0.2 mg and 0.02 mg/kg) were administered intraperitoneally once a day to Wister male rats (100-120 g). One hour after the administration, electric shocks were applied to the rats so that they would acquire passive avoidance learning. Immediately thereafter, scopolamine was administered intraperitoneally to each rat in an amount of 3 mg per kg of body weight.
(§2) The result of the test was assessed both 24 hours and 48 hours after the administration of scopolamine. The number of amnesic rats and that of sound rats were counted for each of the control group (rats which were not administered the test compounds but administered intraperitoneally only scopolamine and physiological saline) and the treated group (rats which were administered both the test compound and scopolamine).

[3] = test system: experimental amnesia caused in rats by scopolamine; assay: Preventive effect against experimental amnesia caused in rats by scopolamine (oral administration); type: in vivo; conditions: for No. of amnesic rats/No. of rats tested / Percentage amnesia: scopolamine 3 mg/kg i.p.
Experimental: as §1, §2
Varying amounts (1, 5, 25 and 100 mg/kg) of the compound were administered orally to each of the rats and tested for its anti-amnesic effects by the same procedures as used in Example 9.

Row | Compound | IC50 (μg/test tube) (prolyl endopeptidase) | NOAEL at 48 h [1] | No. of amnesic rats/No. of rats tested ([2]; 0.2 mg/kg i.p.) | Percentage amnesia ([2]; 0.2 mg/kg i.p.) | No. of amnesic rats/No. of rats tested ([2]; 2 mg/kg i.p.) | Percentage amnesia ([2]; 2 mg/kg i.p.) | No. of amnesic rats/No. of rats tested ([2]; 20 mg/kg i.p.) | Percentage amnesia ([2]; 20 mg/kg i.p.) | No. of amnesic rats/No. of rats tested ([2]; 0.02 mg/kg i.p.) | Percentage amnesia ([2]; 0.02 mg/kg i.p.) | effect in preventing amnesia (in words) ([2]; i.p. administration, Example 9) | No. of amnesic rats/No. of rats tested ([3]; 1 mg/kg p.o.) | Percentage amnesia ([3]; 1 mg/kg p.o.) | No. of amnesic rats/No. of rats tested ([3]; 5 mg/kg p.o.) | Percentage amnesia ([3]; 5 mg/kg p.o.) | No. of amnesic rats/No. of rats tested ([3]; 25 mg/kg p.o.) | Percentage amnesia ([3]; 25 mg/kg p.o.) | No. of amnesic rats/No. of rats tested ([3]; 100 mg/kg p.o.) | Percentage amnesia ([3]; 100 mg/kg p.o.) | oral amount giving the strongest anti-amnesic action ([3]; of 1, 5, 25 and 100 mg/kg administered orally to rats)
1 | O=CC1CCCN1C(=O)Cc1ccccc1 (stereo not shown) [Compound No. 1] | 0.8 μg/test tube | 535 mg/kg | 7/10 | 70% | 3/10 | 30% | – | – | – | – | – | – | – | – | – | – | – | – | – | –
2 | COC(=O)[C@@H]1CCCN1C(=O)Cc1ccccc1 [Compound No. 2, N-phenylacetyl-proline methyl ester] | 200 μg/test tube | 535 mg/kg | – | – | – | – | 7/10 | 70% | – | – | – | – | – | – | – | – | – | – | – | –
3 | O=CC1CCCN1C(=O)CCc1ccccc1 (stereo not shown) [Compound No. 3, N-(3-phenylpropionyl)-prolinal] | 0.018 μg/test tube | 543 mg/kg | 4/15 | 27% | 4/15 | 27% | – | – | 7/15 | 47% | – | – | – | – | – | – | – | – | – | –
4 | COC(=O)[C@@H]1CCCN1C(=O)CCc1ccccc1 [Compound No. 4, N-(3-phenylpropionyl)-proline methyl ester] | 60 μg/test tube | 542 mg/kg | – | – | 8/10 | 80% | 4/10 | 40% | – | – | – | – | – | – | – | – | – | – | – | –
5 | O=CC1CCCN1C(=O)CCCc1ccccc1 (stereo not shown) [Compound No. 5] | 0.006 μg/test tube | 534 mg/kg | 2/15 | 13% | 3/15 | 20% | – | – | 4/15 | 27% | particularly effective in preventing amnesia | 4/10 | 40% | 1/10 | 10% | 3/10 | 30% | 8/10 | 80% | 5 mg/kg
6 | COC(=O)C1CCCN1C(=O)CCCc1ccccc1 (stereo not shown) [Compound No. 6, N-(4-phenyl-n-butyryl)-proline methyl ester] | 25 μg/test tube | 536 mg/kg | 5/10 | 50% | 3/10 | 30% | – | – | – | – | – | – | – | – | – | – | – | – | – | –
7 | O=CC1CCCN1C(=O)CCCCCc1ccccc1 (stereo not shown) [Sample prepared in Example 7, N-(6-phenyl-n-caproyl)-prolinal] | 0.35 μg/test tube | – | – | – | – | – | – | – | – | – | – | – | – | – | – | – | – | – | – | –
